Experimental data reported in PubChem BioAssay AID330 (DTP/NCI, 2004).
“And” between values parts separate entries of the source, which are not always exact repeats. Identical values can stand only once. Inconclusive results and toxic doses are left out. How the source made its calls: active means survival T/C of 150% or more; inactive means T/C below 125% in these data.

Test system: P388 leukemia ip, CD2F1 mice, survival T/C
Experiment: NCI In Vivo Anticancer Drug Screen. Data for tumor model P388 Leukemia (intraperitoneal) in CD2F1 (CDF1) mice
Conditions: endpoint: median survival time, higher = longer survival
Summary of the method: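 Mice carrying the transplanted tumor received test compound or vehicle. Survival was recorded in each group, and the value is the treated-group measurement divided by that of the vehicle-treated control group.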

[1] = dose: 6.25 mg/kg/injection, schedule: Q01DX009 (ip), vehicle: saline
[2] = dose: 100.0 mg/kg/injection, schedule: Q01DX009 (ip), vehicle: Klucel (hydroxypropylcellulose) (HPC)
[3] = dose: 25.0 mg/kg/injection, schedule: Q01DX005 (ip), vehicle: Klucel (hydroxypropylcellulose) (HPC)
[4] = dose: 50.0 mg/kg/injection, schedule: Q01DX005 (ip), vehicle: Klucel (hydroxypropylcellulose) (HPC)
[5] = dose: 100.0 mg/kg/injection, schedule: Q01DX005 (ip), vehicle: Klucel (hydroxypropylcellulose) (HPC)
[6] = dose: 100.0 mg/kg/injection, schedule: Q04DX002 (ip), vehicle: saline
[7] = dose: 200.0 mg/kg/injection, schedule: Q04DX002 (ip), vehicle: saline
[8] = dose: 400.0 mg/kg/injection, schedule: Q04DX002 (ip), vehicle: saline
[9] = dose: 50.0 mg/kg/injection, schedule: Q01DX009 (ip), vehicle: saline with Tween-80
[10] = dose: 100.0 mg/kg/injection, schedule: Q01DX009 (ip), vehicle: saline with Tween-80
[11] = dose: 200.0 mg/kg/injection, schedule: Q01DX009 (ip), vehicle: saline with Tween-80
[12] = dose: 25.0 mg/kg/injection, schedule: Q01DX009 (ip), vehicle: saline with Tween-80
[13] = dose: 50.0 mg/kg/injection, schedule: Q01DX005 (ip), vehicle: saline with Tween-80
[14] = dose: 12.5 mg/kg/injection, schedule: Q01DX005 (ip), vehicle: Klucel (hydroxypropylcellulose) (HPC)
[15] = dose: 100.0 mg/kg/injection, schedule: Q01DX005 (ip), vehicle: saline with Tween-80
[16] = dose: 200.0 mg/kg/injection, schedule: Q01DX005 (ip), vehicle: saline with Tween-80

Measured: T/C

CO[n+]1ccccc1Cc1ccccc1
inactive: [1] 118 % of control | dose: 12.5 mg/kg/injection, schedule: Q01DX009 (ip), vehicle: saline 112 % of control and 119 % of control | dose: 25.0 mg/kg/injection, schedule: Q01DX009 (ip), vehicle: saline 111 % of control | dose: 50.0 mg/kg/injection, schedule: Q01DX009 (ip), vehicle: saline 119 % of control

Cc1cc(C)cc(C(C)(C)C)c1
inactive: dose: 100.0 mg/kg/injection, schedule: Q04DX003 (ip), vehicle: saline with Tween-80 100 % of control | dose: 200.0 mg/kg/injection, schedule: Q04DX003 (ip), vehicle: saline with Tween-80 100 % of control

CC/C(C)=C1\OC(=O)C(C)C(O)C(Cc2cccnc2)NC(=O)C(NC(=O)c2ncccc2O)C(C)OC1=O (stereo not drawn)
inactive: dose: 18.75 mg/kg/injection, schedule: Q01DX009 (ip), vehicle: saline with Tween-80 88 % of control | dose: 37.5 mg/kg/injection, schedule: Q01DX009 (ip), vehicle: saline with Tween-80 86 % of control | dose: 150.0 mg/kg/injection, schedule: Q01DX009 (ip), vehicle: saline with Tween-80 86 % of control

CCOc1ccc(-c2nc(Cl)nc(Cl)n2)c2ccccc12
inactive: dose: 60.0 mg/kg/injection, schedule: Q01DX005 (ip), vehicle: Klucel (hydroxypropylcellulose) (HPC) 104 % of control | dose: 120.0 mg/kg/injection, schedule: Q01DX005 (ip), vehicle: Klucel (hydroxypropylcellulose) (HPC) 111 % of control

CCOP(=S)(O/C(=C/Cl)c1cc(Cl)c(Cl)cc1Cl)c1ccccc1 (stereo not drawn)
inactive: dose: 50.0 mg/kg/injection, schedule: Q01DX009 (ip), vehicle: Klucel (hydroxypropylcellulose) (HPC) 92 % of control | [2] 95 % of control | dose: 200.0 mg/kg/injection, schedule: Q01DX009 (ip), vehicle: Klucel (hydroxypropylcellulose) (HPC) 96 % of control

Nc1ccc(O)c(N)c1
inactive: dose: 0.78 mg/kg/injection, schedule: Q01DX009 (ip), vehicle: saline 99 % of control | dose: 1.56 mg/kg/injection, schedule: Q01DX009 (ip), vehicle: saline 96 % of control | dose: 3.12 mg/kg/injection, schedule: Q01DX009 (ip), vehicle: saline 102 % of control | [1] 105 % of control

Cn1cc(N)c(=O)[nH]c1=O
inactive: dose: 50.0 mg/kg/injection, schedule: Q01DX005 (ip), vehicle: saline 98 % of control | dose: 100.0 mg/kg/injection, schedule: Q01DX005 (ip), vehicle: saline 101 % of control | dose: 200.0 mg/kg/injection, schedule: Q01DX005 (ip), vehicle: saline 102 % of control

CCCCCCCCCCN=Cc1c(O)c(O)c(CCC)c2cc(C)c(-c3c(C)cc4c(CCC)c(O)c(O)c(C=NCCCCCCCCCC)c4c3O)c(O)c12
inactive: [3] 100 % of control | [4] 95 % of control | [5] 98 % of control | dose: 200.0 mg/kg/injection, schedule: Q01DX005 (ip), vehicle: Klucel (hydroxypropylcellulose) (HPC) 95 % of control

CCO/C=C(/C#N)C(=O)OC
inactive: [6] 100 % of control | [7] 101 % of control | [8] 100 % of control

N=c1c2ccccc2cc2c3ccccc3ccn12
inactive: dose: 60.0 mg/kg/injection, schedule: Q01DX005 (ip), vehicle: saline with Tween-80 115 % of control | dose: 120.0 mg/kg/injection, schedule: Q01DX005 (ip), vehicle: saline with Tween-80 99 % of control | dose: 240.0 mg/kg/injection, schedule: Q01DX005 (ip), vehicle: saline with Tween-80 108 % of control

C[Si](C)(C)OSc1ccccc1[N+](=O)[O-]
inactive: dose: 12.5 mg/kg/injection, schedule: Q01DX009 (ip), vehicle: Klucel (hydroxypropylcellulose) (HPC) 121 % of control | [9] 120 % of control | [2] 122 % of control | [10] 114 % of control | [11] 115 % of control

COC(=O)C(C#N)c1ccccn1 (stereo not drawn)
inactive: [9] 96 % of control | [10] 100 % of control

O=C(SCN1CCCCC1)c1ccccc1
inactive: [12] 100 % of control | [9] 113 % of control | [10] 109 % of control

CCOC(=O)C1C(=O)N2C(=O)C(NC(C)=O)=C(O)C2C1c1ccc(Cl)cc1 (stereo not drawn)
inactive: dose: 100.0 mg/kg/injection, schedule: Q04DX002 (ip), vehicle: saline with Tween-80 100 % of control | dose: 200.0 mg/kg/injection, schedule: Q04DX002 (ip), vehicle: saline with Tween-80 105 % of control | dose: 400.0 mg/kg/injection, schedule: Q04DX002 (ip), vehicle: saline with Tween-80 98 % of control

CC1CCC(C(C)C)C2(C1)OC(CCl)CS2 (stereo not drawn)
inactive: dose: 12.5 mg/kg/injection, schedule: Q01DX009 (ip), vehicle: saline with Tween-80 106 % of control | [12] 114 % of control | [9] 114 % of control and 124 % of control

O=C1NN2CCN=C2c2cnccc21
inactive: [6] 98 % of control | [7] 93 % of control | [8] 92 % of control

O=C(/C(=C\c1ccccc1)c1ccccc1)c1ccccc1
inactive: [9] 92 % of control | [10] 88 % of control | [11] 93 % of control | dose: 400.0 mg/kg/injection, schedule: Q01DX009 (ip), vehicle: saline with Tween-80 95 % of control

CC(/C=C/c1ccco1)=N\NC(=S)Nc1ccc(Br)cc1
inactive: dose: 100.0 mg/kg/injection, schedule: Q04DX002 (ip), vehicle: Klucel (hydroxypropylcellulose) (HPC) 97 % of control | dose: 200.0 mg/kg/injection, schedule: Q04DX002 (ip), vehicle: Klucel (hydroxypropylcellulose) (HPC) 97 % of control | dose: 400.0 mg/kg/injection, schedule: Q04DX002 (ip), vehicle: Klucel (hydroxypropylcellulose) (HPC) 92 % of control

CCc1nc(N)nc(N)c1-c1ccc(N)cc1
inactive: dose: 12.5 mg/kg/injection, schedule: Q01DX005 (ip), vehicle: saline with Tween-80 104 % of control | dose: 25.0 mg/kg/injection, schedule: Q01DX005 (ip), vehicle: saline with Tween-80 100 % of control | [13] 98 % of control and 99 % of control

C=C1CC2(CC3CCC2(C)C3(C)C)OC1=O (stereo not drawn)
inactive: dose: 100.0 mg/kg/injection, schedule: Q01DX001 (ip), vehicle: saline 98 % of control | dose: 200.0 mg/kg/injection, schedule: Q01DX001 (ip), vehicle: saline 99 % of control | dose: 400.0 mg/kg/injection, schedule: Q01DX001 (ip), vehicle: saline 99 % of control

CN(C)CCSSCCN(C)C.[Cl][Zn][Cl]
inactive: dose: 6.25 mg/kg/injection, schedule: Q01DX005 (ip), vehicle: Klucel (hydroxypropylcellulose) (HPC) 102 % of control | [14] 95 % of control | [3] 97 % of control

O=C(OCC1OC(O)(COC(=O)c2ccccc2)C(OC(=O)c2ccccc2)C1OC(=O)c1ccccc1)c1ccccc1 (stereo not drawn)
inactive: [14] 97 % of control | [3] 98 % of control | [4] 90 % of control and 92 % of control

c1cnc2c(c1)-n1cccc1C1(CCCCC1)NN2
inactive: dose: 100.0 mg/kg/injection, schedule: Q01DX001 (ip), vehicle: saline with Tween-80 108 % of control | dose: 200.0 mg/kg/injection, schedule: Q01DX001 (ip), vehicle: saline with Tween-80 93 % of control | dose: 400.0 mg/kg/injection, schedule: Q01DX001 (ip), vehicle: saline with Tween-80 93 % of control

CC(=O)/C(N=Nc1ccc(F)cc1F)=C(\C)O
inactive: [13] 103 % of control | [15] 103 % of control | [16] 107 % of control

CCC1(c2ccccc2)CCCC(C(N)=O)C1=O (stereo not drawn)
inactive: dose: 100.0 mg/kg/injection, schedule: Q01DX001 (ip), vehicle: Klucel (hydroxypropylcellulose) (HPC) 100 % of control | dose: 200.0 mg/kg/injection, schedule: Q01DX001 (ip), vehicle: Klucel (hydroxypropylcellulose) (HPC) 99 % of control | dose: 400.0 mg/kg/injection, schedule: Q01DX001 (ip), vehicle: Klucel (hydroxypropylcellulose) (HPC) 101 % of control

Clc1ccc(CN2COc3c(ccc4cccnc34)C2)cc1
inactive: dose: 50.0 mg/kg/injection, schedule: Q04DX003 (ip), vehicle: Klucel (hydroxypropylcellulose) (HPC) 101 % of control and 115 % of control | dose: 100.0 mg/kg/injection, schedule: Q04DX003 (ip), vehicle: Klucel (hydroxypropylcellulose) (HPC) 101 % of control and 105 % of control and 97 % of control | dose: 200.0 mg/kg/injection, schedule: Q04DX003 (ip), vehicle: Klucel (hydroxypropylcellulose) (HPC) 100 % of control and 103 % of control and 123 % of control | dose: 400.0 mg/kg/injection, schedule: Q04DX003 (ip), vehicle: Klucel (hydroxypropylcellulose) (HPC) 93 % of control

CN1N=Nc2ccccc2C1O (stereo not drawn)
inactive: [3] 92 % of control | [4] 95 % of control | [5] 116 % of control

O=C1C=CC(=Nc2cc(Cl)c(O)c(Cl)c2)C=C1
inactive: [13] 96 % of control | [15] 92 % of control | [16] 88 % of control
